One test deals with T1, Adrenergic β2 (Homo sapiens, UniProt P07550).
T1 construct: Adherent H292 cells are removed from tissue culture flasks by treatment with Accutase™ cell detachment solution; endogenous in cells; host or cells: H292 cells
Briefly: Adrenergic β2 mediated cAMP production in H292 cells (AlphaScreen), concentration response. The test is classed as cell-based. Particulars: for EC50: 60 min, 300 μM rolipram, read-out: β2 pEC50 (converted); for β2 Intrinsic Activity: fraction relative to the maximum activity determined for formoterol. A digest of the protocol:
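H292 cells seeded overnight, pretreated 10 min with rolipram (300 μM final), then exposed to compounds 60 min at room temperature in HBSS/10 mM HEPES pH 7.4/5 mM glucose, 1% DMSO. Lysate cAMP quantified by AlphaScreen against a standard curve; four-parameter fit gives pEC50 and intrinsic activity relative to formoterol maximum.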

The target in test [1] is T2, human muscarinic acetylcholine M3 receptor (Homo sapiens, UniProt P20309).
T2 construct: expressed in transfected cells; host or cells: CHO-K1 (Chinese Hamster Ovary) cell membranes
Briefly: Muscarinic 3 receptor binding assay ([3H]NMS competition, SPA), pIC50. As to conditions: [3H]NMS 0.1 nM, CHO-K1 cell membranes expressing human M3 receptor. The method in brief: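 Competition of [3H]NMS (0.1 nM, quarter Kd) binding to CHO-K1 membranes expressing human M3, SPA format, in 20 mM HEPES pH 7.4, 5 mM MgCl2, 0.1% BSA, 1% DMSO. Incubated 16 h at room temperature; non-specific binding with 1 μM atropine; pIC50 from specific binding.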

Counter-ions that a name gives are not always drawn.

T2 sequence (P20309 whole entry): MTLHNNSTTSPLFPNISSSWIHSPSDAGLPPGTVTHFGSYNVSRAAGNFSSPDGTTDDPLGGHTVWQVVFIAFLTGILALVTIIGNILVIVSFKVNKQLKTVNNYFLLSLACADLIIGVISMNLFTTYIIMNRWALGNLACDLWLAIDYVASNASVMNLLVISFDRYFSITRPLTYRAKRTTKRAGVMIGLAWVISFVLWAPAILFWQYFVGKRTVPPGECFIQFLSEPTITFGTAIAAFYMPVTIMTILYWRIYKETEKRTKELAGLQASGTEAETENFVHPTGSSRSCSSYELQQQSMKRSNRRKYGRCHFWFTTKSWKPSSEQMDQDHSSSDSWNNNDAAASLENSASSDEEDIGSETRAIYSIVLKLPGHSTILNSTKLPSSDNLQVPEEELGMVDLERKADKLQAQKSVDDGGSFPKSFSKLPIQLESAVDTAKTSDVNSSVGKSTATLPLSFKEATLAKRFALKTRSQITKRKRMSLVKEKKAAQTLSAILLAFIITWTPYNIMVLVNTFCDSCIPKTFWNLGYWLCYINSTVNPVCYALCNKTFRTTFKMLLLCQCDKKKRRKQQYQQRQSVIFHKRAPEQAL
T1 sequence (P07550 whole entry): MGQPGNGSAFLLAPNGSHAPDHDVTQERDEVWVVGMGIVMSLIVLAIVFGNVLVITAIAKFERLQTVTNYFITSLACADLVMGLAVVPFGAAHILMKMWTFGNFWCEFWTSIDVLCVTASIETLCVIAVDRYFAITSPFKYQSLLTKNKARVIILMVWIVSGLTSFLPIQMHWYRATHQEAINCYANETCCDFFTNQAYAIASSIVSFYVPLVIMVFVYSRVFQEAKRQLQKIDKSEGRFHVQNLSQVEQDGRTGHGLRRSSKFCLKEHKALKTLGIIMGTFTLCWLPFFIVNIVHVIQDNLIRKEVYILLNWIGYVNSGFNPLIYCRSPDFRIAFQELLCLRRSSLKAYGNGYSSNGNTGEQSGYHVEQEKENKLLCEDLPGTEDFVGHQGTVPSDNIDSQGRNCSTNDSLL

In general, IC50 refers to the concentration that gives 50% inhibition. Low values mean greater potency in that assay, high ones weaker potency in that assay. For `CCCCN(CCNCCc1ccc(O)c2c1OCC(=O)N2)C(=O)CCOCCc1cccc(CCN2CCC3(CC2)CN(C(=O)c2csc(C(C)C)n2)CCO3)c1` [Example 34, N-Butyl-N-(2-(2-(5-hydroxy-3-oxo-3,4-dihydro-2H-benzo[b][1,4]oxazin-8-yl)ethylamino)ethyl)-3-(3-(2-(4-(2-isopropylthiazole-4-carbonyl)-1-oxa-4,9-diazaspiro[5.5]undecan-9-yl)ethyl)phenethoxy)propanamide ditrifluoroacetate], on Adrenergic β2, the EC50 was 10 nM and the “β2 Intrinsic Activity” value is given as 1.0. In test [1], the IC50 is 1 nM.
Consider `CCCCN(CCNCCc1ccc(O)c2c1OCC(=O)N2)C(=O)CCOCCc1cccc(CCN2CCC3(CC2)CN(C(=O)c2csc(C(C)C)n2)CCO3)c1` [Example 34a, N-Butyl-N-(2-(2-(5-hydroxy-3-oxo-3,4-dihydro-2H-benzo[b][1,4]oxazin-8-yl)ethylamino)ethyl)-3-(3-(2-(4-(2-isopropylthiazole-4-carbonyl)-1-oxa-4,9-diazaspiro[5.5]undecan-9-yl)ethyl)phenethoxy)propanamide Sulphate salt Modification A], for which the EC50 on Adrenergic β2 is 15.8 nM. In test [1], this compound gave an IC50 of 0.631 nM.
As to `CCN(CCNCCc1ccc(O)c2[nH]c(=O)sc12)C(=O)CCOCCc1cccc(CCN2CCC3(CC2)CN(C(=O)c2csc(C(C)C)n2)CCO3)c1` [Example 35, N-Ethyl-N-(2-(2-(4-hydroxy-2-oxo-2,3-dihydrobenzo[d]thiazol-7-yl)ethylamino)ethyl)-3-(3-(2-(4-(2-isopropylthiazole-4-carbonyl)-1-oxa-4,9-diazaspiro[5.5]undecan-9-yl)ethyl)phenethoxy)propanamide ditrifluoroacetate], on Adrenergic β2, the EC50 was 3.16 nM and the “β2 Intrinsic Activity” value is given as 1.0. This compound gave an IC50 in test [1] of 3.98 nM.
Consider `CC(C)c1nc(C(=O)N2CCOC3(CCN(CCc4cccc(CCOCCC(=O)N(CCNCCc5ccc(O)c6c5OCC(=O)N6)C5CCCCC5)c4)CC3)C2)cs1` [Example 36, N-Cyclohexyl-N-(2-(2-(5-hydroxy-3-oxo-3,4-dihydro-2H-benzo[b][1,4]oxazin-8-yl)ethylamino)ethyl)-3-(3-(2-(4-(2-isopropylthiazole-4-carbonyl)-1-oxa-4,9-diazaspiro[5.5]undecan-9-yl)ethyl)phenethoxy)propanamide ditrifluoroacetate], for which, at Adrenergic β2, the EC50 was 12.6 nM and the “β2 Intrinsic Activity” value is listed as 1.0. The compound also gave an IC50 in test [1] of 2.51 nM.
The matching figures for `CC[C@@H](C)N(CCNCCc1ccc(O)c2c1OCC(=O)N2)C(=O)CCOCCc1cccc(CCN2CCC3(CC2)CN(C(=O)c2csc(C(C)C)n2)CCO3)c1` [Example 37, (R)—N-sec-Butyl-N-(2-(2-(5-hydroxy-3-oxo-3,4-dihydro-2H-benzo[b][1,4]oxazin-8-yl)ethylamino)ethyl)-3-(3-(2-(4-(2-isopropylthiazole-4-carbonyl)-1-oxa-4,9-diazaspiro[5.5]undecan-9-yl)ethyl)phenethoxy)propanamide ditrifluoroacetate]: 10 nM, 0.9 and 0.794 nM.
`CCCC[C@@H](C)N(CCNCCc1ccc(O)c2c1OCC(=O)N2)C(=O)CCOCCc1cccc(CCN2CCC3(CC2)CN(C(=O)c2csc(C)n2)CCO3)c1` [Example 38, (R)—N-(Hexan-2-yl)-N-(2-(2-(5-hydroxy-3-oxo-3,4-dihydro-2H-benzo[b][1,4]oxazin-8-yl)ethylamino)ethyl)-3-(3-(2-(4-(2-methylthiazole-4-carbonyl)-1-oxa-4,9-diazaspiro[5.5]undecan-9-yl)ethyl)phenethoxy)propanamide ditrifluoroacetate]: on Adrenergic β2, the EC50 was 15.8 nM and the “β2 Intrinsic Activity” value was 1.0. This compound also showed an IC50 in test [1] of 0.398 nM.

(Values after patent publication US8476265B2, “Compounds-801” (AstraZeneca AB, priority 2010, dated 2013).)
